The source of these data is US7605154B2, “Substituted Thiazolo [4,5-d]pyrimidines as protein kinase inhibitors” (Janssen Pharmaceutica N.V., priority 2005, dated 2009).

The target in one assay is T1, EGFR (Homo sapiens, UniProt P00533).
T1 construct: started at nucleotide 2189 (corresponding to amino acid 667) and ended at the termination codon; made in house; host or cells: Sf9 insect cells (baculovirus)
Description: EGFR Kinase Assay. Particulars: GST-EGFR, 5 μM ATP. In kind it is biochemical. Summed up: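 Baculovirus/Sf9-expressed GST-EGFR with biotinylated polyGluTyr substrate, 5 μM ATP plus γ-33P-ATP, in 50 mM Tris pH 8.0, 10 mM MgCl2, 0.1 mM vanadate, 1 mM DTT; 1 h at 30 °C.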

Assay [1] has as its system SK-OV-3. The assay is described as follows: Cell Proliferation Inhibition Assay (14C-thymidine incorporation), SK-OV-3. The assay is classed as cell-based. The settings on record: Homo sapiens. On the procedure:
(§1) The ability of a test compound to inhibit unregulated cell proliferation may be determined by measuring incorporation of ^14C-labelled thymidine into newly synthesized DNA within cell lines derived from carcinomas originating from several tissues. Accordingly, the anti-proliferative effect of a compound on cells with a variety of phenotypes may be determined.
The carcinoma cells are trypsinized and counted. The cells (3000-8000 count) are added to each well of a 96-well CytoStar tissue culture treated scintillating microplate (Amersham #RPNQ0160) in complete medium (100 μL) and the plate is then incubated in complete medium for 24 hrs at 37° C. in an inert atmosphere containing 5% CO2. Test compound (1 μL) in 100% DMSO is added to the plate test-wells with DMSO only added to control-wells.
The plate contents are then discarded, the plate is washed twice with PBS (200 μL) and then PBS (200 μL) is added to each well. The plate is sealed and the degree of methyl ^14C-thyrnidine incorporation is quantified on a Packard Top Count.
For orientation: Uptake of a labelled nucleoside into DNA is a usual measure of proliferation.

The next assay has as its target T2, c-Src kinase (Homo sapiens, UniProt P12931).
T2 construct: purchased Upstate Biotechnology, Lake Placid, N.Y
The assay is described as follows: c-Src Kinase Assay. The assay is classed as biochemical. The settings on record: test concentration of 1 μM. On the procedure:
A mixure of a 10× kinase buffer (80 mM MOPS at pH 7.0, 2 mM EDTA and 100 mM Magnesium Chloride), ATP (5 μM final from a 10 mM stock), a Cdc2 peptide […] (100 μM final from a 2.5 mM stock), γ-^33P ATP (10 μCi/μL stock) and water (20 μL/well) was added to each well of a Streptavidin Flashplate.
Test compound in 100% DMSO (0.5 μL) was added to the appropriate wells. Diluted c-Src kinase (human) (Upstate Biotechnology, Lake Placid, N.Y.) (diluted in a buffer consisting of 20 mM MOPS at pH 7.0, 1 mM EDTA, β-mercaptoethanol (0.1%), Brij-35 (0.01%), glycerol (5%), and 1 mg/mL bovine serum albumin) (2.5 μL) was added to the wells to initiate the reactions. The reaction plates were incubated at 30° C. for 40 min. The reaction was terminated by the addition of a 3% phosphoric acid solution (5 μL). The reaction product (10 μL) was spotted onto a P30 filtermat and washed for 5 minutes in phosphoric acid (75 mM). The wash sequence was repeated two more times, followed with one final wash in methanol. The plates were then dried, sealed and read on the TopCount scintillation counter after adding 30 μL scintillation fluid.
Percent inhibition was derived according to the procedure described in Example 5. The results for those compounds tested are shown in Table 2 at a test concentration of 1 μM.

For a further assay, the system named is HCT-116. Description: Cell Proliferation Inhibition Assay (14C-thymidine incorporation), HCT-116. In kind it is cell-based. Particulars: Homo sapiens.
Source text: as §1
(§2) Carcinoma cell lines include those such as HeLa cervical adenocarcinoma (American Type Culture Collection (ATCC), Virginia, Cat. #CCL-2), A375 malignant melanoma (ATCC CRL-1619), SK-OV-3 ovarian adenocarcinoma (ATCC HTB-77), HCT-116 colon carcinoma (CCL-247), PC-3 prostate adenocarcinoma (ATCC CRL-1435), and MDA-MB-231 (Xenogen Corp.)
(§3) The carcinoma cells are trypsinized and counted. […]
(§4) An aliquot of a solution of Methyl ^14C-thymidine (56 mC/mmol) (NEN #NEC568 or Amersham #CFA532) and complete medium (20 uL to provide 0.2 μCi/well) is then added to each well and the plate is incubated for a third 24 hr period at 37° C. in an atmosphere containing 5% CO2. […] The plate is sealed and the degree of methyl ^14C-thyrnidine incorporation is quantified on a Packard Top Count.

The test system of the next assay is HeLa. Description: Cell Proliferation Inhibition Assay (14C-thymidine incorporation), HeLa. The assay is classed as cell-based. Particulars: Homo sapiens.
Source text: as §1, §2, §3, §4

A further assay has as its system A375. The assay is described as follows: Cell Proliferation Inhibition Assay (14C-thymidine incorporation), A375. The assay is classed as cell-based. The settings on record: Homo sapiens, A-375.
Source text: as §1, §2, §3, §4

The subject of assay [2] is SK-OV-3. Description: SK-OV-3 Cell Migration Inhibition. In kind it is cell-based. The settings on record: several values in a cell are repeat determinations.
A further assay addresses T3, Lyn kinase (Homo sapiens, UniProt P07948).
T3 construct: purchased Upstate biotechnology, Lake Placid, N.Y
Description: Lyn Kinase Assay. In kind it is biochemical. Particulars: test concentration of 1 μM. On the procedure:
A mixture of a 10× kinase buffer (500 mM MOPS at pH 7.5, 1 mM EGTA, 1 mM Sodium Vanadate, 1% β-mercaptoethanol and 100 mM Magnesium Acetate), ATP (5 μM final from a 10 mM stock), polyGluTyr (0.1 mg/mL final from a 1 mg/mL stock), γ-^33P ATP (10 μCi/μL stock) and water (20 μL/well) was added to each well of a Streptavidin Flashplate.
Test compound in 100% DMSO (0.5 μL) was added to the appropriate wells. Diluted Lyn kinase (human) (Upstate biotechnology, Lake Placid, N.Y) (diluted in a buffer consisting of 50 mM Tris at pH 7.5, 0.1 mM EGTA, Sodium Vanadate (0.1 mM), β-mercaptoethanol (0.1%) and 1 mg/mL bovine serum albumin) (2.5 μL) was added to the wells to initiate the reactions.
The reaction plates were incubated at 30° C. for 40 min. The reaction was terminated by the addition of a 3% phosphoric acid solution (5 μL). The reaction product (10 μL) was spotted onto a P30 filtermat and washed for 5 minutes in phosphoric acid (75 mM). The wash sequence was repeated two more times, followed with one final wash in methanol. The plates were then dried, sealed and read on the TopCount scintillation counter after adding 30 μL scintillation fluid.
Percent inhibition was derived according to the procedure described in Example 5. The results for those compounds tested are shown in Table 3 at a test concentration of 1 μM.

For a further assay, the target named is T4, HER-2 (Homo sapiens, UniProt P04626).
T4 construct: the nucleotides encoding amino acids 679 to 1255 of HER-2; HIS6-Thrombin (His6 tag with thrombin site) (N); purchased Proqinase (Freiburg, Germany)
The assay is described as follows: HER-2 Kinase Assay. In kind it is biochemical. The settings on record: GST-HER2, 1 μM ATP. On the procedure:
The HER-2 kinase used was purified at Proqinase (Freiburg, Germany) from a construct that consisted of a fusion of GST (Glutathione-S-Transferase), HIS6-Thrombin and the nucleotides encoding amino acids 679 to 1255 of HER-2.
A mixture of a 10× kinase reaction buffer (600 mM Hepes at pH 7.5, 30 mM Magnesium Chloride, 0.03 mM Sodium Vanadate and […] PEG 20,000), DTT (1.2 mM final from a 10 mM stock), ATP (1 μM from a 10 mM stock), biotinylated polyGluTyr (1.5 ng/μL final from stock of 1 μg/μL prepared by Upstate Biotechnologies, Lake Placid, N.Y.), Manganese Chloride (3 mM final from a 1 M stock), γ-^33P-ATP (10 μCi/μL stock) and water (70 μL/well) was added to each well of a Streptavidin Flashplate (Cat. # SMP103, NEN, Boston, Mass.).
Test compound stock (1 μL) was added to the appropriate wells. Diluted GSTHER2 kinase (6.7 ng/μL diluted into 50 mM Tris-HCl at pH 8.0 and 0.1% bovine serum albumin) (30 μL) was added (total volume of 200 ng/well) to initiate the reactions.
The reaction plates were incubated at 30° C. for 1 hr. The reaction was terminated by aspirating the reaction mixture from the plate wells and washing the wells three times with a 1×PBS stop buffer (300 μL) and 100 mM EDTA. After the final wash, the same stop buffer (200 μL) was again added to the wells. The plates were then sealed and read on the TopCount scintillation counter. […]

[3] abbreviates: Homo sapiens, SK-OV-3, SK-OV-3 migration.

Values joined by “and” are separate entries in the source; they are usually repeats but may differ in a detail not shown here. Identical values can stand only once.

T1 sequence (P00533 667-1210 limits assumed): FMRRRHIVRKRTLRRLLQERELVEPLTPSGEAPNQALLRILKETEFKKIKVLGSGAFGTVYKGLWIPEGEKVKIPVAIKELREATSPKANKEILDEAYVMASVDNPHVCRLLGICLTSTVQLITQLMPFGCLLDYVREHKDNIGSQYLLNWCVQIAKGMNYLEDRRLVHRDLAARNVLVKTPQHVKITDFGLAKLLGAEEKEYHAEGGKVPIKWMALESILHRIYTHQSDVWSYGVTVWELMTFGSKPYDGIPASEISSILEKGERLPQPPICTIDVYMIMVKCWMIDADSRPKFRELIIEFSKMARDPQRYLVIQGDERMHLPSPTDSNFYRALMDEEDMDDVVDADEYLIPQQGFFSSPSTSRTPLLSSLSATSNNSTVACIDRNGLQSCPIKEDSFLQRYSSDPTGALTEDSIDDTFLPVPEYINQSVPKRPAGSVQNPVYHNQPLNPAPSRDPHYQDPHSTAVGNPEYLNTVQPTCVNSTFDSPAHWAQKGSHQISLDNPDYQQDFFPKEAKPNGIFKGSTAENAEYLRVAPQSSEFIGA
T2 sequence (P12931 whole entry): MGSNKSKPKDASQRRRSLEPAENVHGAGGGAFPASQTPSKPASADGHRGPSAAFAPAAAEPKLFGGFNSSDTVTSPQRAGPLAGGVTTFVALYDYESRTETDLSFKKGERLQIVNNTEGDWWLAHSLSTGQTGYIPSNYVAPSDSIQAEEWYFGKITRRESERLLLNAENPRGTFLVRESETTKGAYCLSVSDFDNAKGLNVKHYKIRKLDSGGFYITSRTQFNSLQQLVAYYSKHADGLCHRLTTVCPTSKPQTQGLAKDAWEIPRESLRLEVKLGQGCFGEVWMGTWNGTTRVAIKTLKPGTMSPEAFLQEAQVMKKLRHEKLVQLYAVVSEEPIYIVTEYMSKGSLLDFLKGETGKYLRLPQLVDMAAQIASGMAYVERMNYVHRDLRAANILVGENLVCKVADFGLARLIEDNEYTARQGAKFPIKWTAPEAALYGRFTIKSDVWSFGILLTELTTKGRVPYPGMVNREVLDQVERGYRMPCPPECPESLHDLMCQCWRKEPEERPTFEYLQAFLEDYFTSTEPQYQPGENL
T4 sequence (P04626 679-1255): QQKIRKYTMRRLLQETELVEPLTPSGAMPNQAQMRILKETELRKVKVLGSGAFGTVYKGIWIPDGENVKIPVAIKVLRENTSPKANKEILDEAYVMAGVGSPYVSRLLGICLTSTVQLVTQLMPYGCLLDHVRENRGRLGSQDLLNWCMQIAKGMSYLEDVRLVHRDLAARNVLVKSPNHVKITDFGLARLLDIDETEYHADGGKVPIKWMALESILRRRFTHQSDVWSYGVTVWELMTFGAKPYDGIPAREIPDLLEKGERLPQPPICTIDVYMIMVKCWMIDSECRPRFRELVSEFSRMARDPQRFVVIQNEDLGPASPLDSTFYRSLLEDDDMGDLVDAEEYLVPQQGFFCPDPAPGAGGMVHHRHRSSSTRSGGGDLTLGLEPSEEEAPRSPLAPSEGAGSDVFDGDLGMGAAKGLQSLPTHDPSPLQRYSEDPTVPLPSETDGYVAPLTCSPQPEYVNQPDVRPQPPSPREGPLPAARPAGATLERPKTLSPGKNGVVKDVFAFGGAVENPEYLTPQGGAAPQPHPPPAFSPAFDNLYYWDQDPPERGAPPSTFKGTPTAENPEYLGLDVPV
T3 sequence (P07948 whole entry): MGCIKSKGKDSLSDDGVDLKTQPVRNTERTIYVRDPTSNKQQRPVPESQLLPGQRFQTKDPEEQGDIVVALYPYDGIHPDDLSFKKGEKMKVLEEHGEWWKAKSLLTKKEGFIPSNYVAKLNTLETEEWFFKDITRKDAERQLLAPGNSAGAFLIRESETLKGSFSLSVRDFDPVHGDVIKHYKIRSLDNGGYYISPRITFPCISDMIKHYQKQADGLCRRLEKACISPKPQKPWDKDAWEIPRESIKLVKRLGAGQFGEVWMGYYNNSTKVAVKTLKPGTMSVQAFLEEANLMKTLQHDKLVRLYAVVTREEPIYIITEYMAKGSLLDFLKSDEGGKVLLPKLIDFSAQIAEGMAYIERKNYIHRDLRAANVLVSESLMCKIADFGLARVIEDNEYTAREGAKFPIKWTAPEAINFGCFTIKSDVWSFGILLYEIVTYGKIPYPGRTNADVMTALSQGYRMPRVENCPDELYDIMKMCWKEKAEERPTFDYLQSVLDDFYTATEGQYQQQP

A word on the IC50: it is the point on the concentration scale where inhibition reaches its midpoint. For `Fc1ccc(Nc2ncnc3nc(Nc4ccc(CN5CCCCC5)cc4)sc23)cc1Cl` [Cpd 2, N^7-(3-chloro-4-fluoro-phenyl)-N^2-(4-piperidin-1-ylmethyl-phenyl)-thiazolo[4,5-d]pyrimidine-2,7-diamine], the IC50 against EGFR amounted to 8.9 nM; with SK-OV-3 [1], 490 nM.

In the case of `CN(C)CCc1ccc(Nc2nc3ncnc(Nc4ccc(F)c(Cl)c4)c3s2)cc1` [Cpd 11, N^7-(3-chloro4-fluoro-phenyl)-N^2-[4-(2-dimethylamino-ethyl)-phenyl]-thiazolo[4,5-d]pyrimidine-2,7-diamine], the values for the IC50 on EGFR and in the assay with SK-OV-3 [1] were 12.8 nM and 600 nM, respectively.

By inhibition is commonly meant the percentage by which the read-out fell short of the control. Read a high inhibition as strong suppression. On c-Src kinase, `NS(=O)(=O)c1ccc(Nc2nc3ncnc(Nc4ccc(F)c(Cl)c4)c3s2)cc1` [Cpd 73, 4-[7-(3-chloro-4-fluoro-phenylamino)-thiazolo[4,5-d]pyrimidin-2-ylamino]-benzenesulfonamnide] returned an inhibition at 1 µM of 65%.

With `Fc1ccc(Nc2ncnc3nc(Nc4ccc(CN5CCOCC5)cc4)sc23)cc1Cl` [Cpd 18, N^7-(3-chloro-4-fluoro-phenyl)-N^2-(4-morpholin-4-ylmethyl-phenyl)-thiazolo[4,5-d]pyrimidine-2,7-diamine], the IC50 was above 100000 nM with HCT-116; 15.4 nM on EGFR; above 100000 nM in the assay on HeLa; above 100000 nM with A375; 186 nM with SK-OV-3 [2] (setting [3]); 156 nM and 141 nM in the assay with SK-OV-3 [2] (SK-OV-3 migration).

Take `C#Cc1cccc(Nc2ncnc3nc(Nc4ccc(CNCC(O)CO)cc4)sc23)c1` (stereo not shown) [Cpd 66, 3-{4-[7-(3-ethynyl-phenylamino)-thiazolo[4,5-d]pyrimidin-2-ylamino]-benzylamino}-propane-1,2-diol]: the IC50 on EGFR stood at 7.28 nM. Further, the inhibition at 1 µM on c-Src kinase turned out to be 15%; at Lyn kinase, 25%.

As for `CN1CCN(Cc2ccc(Nc3nc4ncnc(Nc5ccc(OCc6cccc(F)c6)c(Cl)c5)c4s3)cc2)CC1` [Cpd 68, N^7-[3-chloro-4-(3-fluoro-benzyloxy)-phenyl]-N^2-[4-(4-methyl-piperazin-1-ylmethyl)-phenyl]-thiazolo[4,5-d]pyrimidine-2,7-diamine], the IC50 in the assay with HCT-116 turned out to be 3080 nM; at EGFR it was 20.3 nM; in the assay with HeLa, 2190 nM; against HER-2 it was 276 nM; in the assay on A375 it was 2030 nM.

Take `Fc1ccc(Nc2ncnc3nc(Nc4ccc(CN5CCCC5)cc4)sc23)cc1Cl` [Cpd 17, N^7-(3-chloro-4-fluoro-phenyl)-N^2-(4-pyrrolidin-1-ylmethyl-phenyl)-thiazolo[4,5-d]pyrimidine-2,7-diamine]: the figures for the IC50 at EGFR and in the assay on SK-OV-3 [1] were 4.2 nM and 620 nM, respectively.

As for `CN1CCN(Cc2ccc(Nc3nc4ncnc(Nc5ccc(Oc6ccccc6)cc5)c4s3)cc2)CC1` [Cpd 94, N^2-[4-(4-methyl-piperazin-1-ylmethyl)-phenyl]-N^7-(4-phenoxy-phenyl)-thiazolo[4,5-d]pyrimidine-2,7-diamine], the IC50 on EGFR stood at 319 nM; on HER-2 it was 1870 nM.

On to `COCCN(CCOC)S(=O)(=O)c1ccc(Nc2nc3ncnc(Nc4ccc(F)c(Cl)c4)c3s2)cc1` [Cpd 32, 4-[7-(3-chloro-4-fluoro-phenylamino)-thiazolo[4,5-d]pyrimidin-2-ylamino]-N,N-bis-(2-methoxy-ethyl)-benzenesulfonamide], for which the IC50 was 20.8 nM against EGFR and above 5000 nM with SK-OV-3 [2] (setting [3]).
